Where a name gives a salt, the structure may show the parent alone.
Experiments:
[1] = system: hypersensitivity to mechanical stimulation; details: in vivo; cited from earlier work
[2] = Study for assessing the central tissue distribution after oral administration to rats; assay type: in vivo, rat; details: for concentration at 1 h: male, Crl: CD (SD), plasma; for concentration at 1 h / Brain concentration / Spinal cord concentration: rat, oral 30 mg/kg, 1 hour after administration, mean value; for Distribution to blood and central tissue (in words): oral administration
Method: Rats (strain: Crl: CD (SD), male, 7 weeks old, with diet) were orally administered a methylcellulose suspension containing a P2X7 receptor antagonist compound (Compound 7 or Compound 10). Then central tissue was collected from rats 1 hour after its administration, and the compound distribution to the collected central tissue was assessed. The dose of the compound per dose was 30 mg/kg, and the concentration of the compound in the suspension was 3 mg/mL.
The study was carried out with n=2 or n=3.

[3] = Study for pharmacokinetics in blood after oral administration to rats; assay type: in vivo; details: male, Crl: CD (SD), rat, 30 mg/kg, oral 30 mg/kg once daily
Method: Rats (strain: Crl: CD (SD), male, 7 weeks old, with diet) were orally administered a methylcellulose suspension containing a P2X7 receptor antagonist compound (Compound 7 or Compound 10). Then blood was collected from rats 15 and 30 minutes, 1, 2, 4, 8 and 24 hours after the administration, and the concentration of the compound contained in the collected blood was measured. The dose of the compound per dose was 30 mg/kg, and the concentration of the compound in the suspension was 3 mg/mL. Administration was carried out once daily for 4 consecutive days.
The variations of a blood level of the compound with the passage of time were analyzed by a conventional method, and the pharmacokinetic parameters were estimated.

[4] = system: CCI model rats; test: Rat chronic stenosis injury model (CCI or Bennett model), Randall-Selitto test; assay type: in vivo; details: 2, 10 or 50 mg/kg single oral dose 3 hours before measurement, 12 days after CCI surgery, vs solvent group
Method: In order to confirm the effect of Compound 7 on neuropathic pain, the effect of Compound 7 on hyperalgesia caused by mechanical stimulation occurring in CCI model rats was investigated. Compound 7 was orally administered to rats as an investigational drug, and the following studies were carried out.
As an experimental animal, a 7-week-old Sprague Dawley male rat (220.4 to 328.0 g) was used. The surgery was performed according to the procedure described in Bennett et al., Pain, 1988, 33, 87-107. Under isoflurane anesthesia, the right sciatic nerve was exposed via a blunt incision in the biceps femoris. Proximal to the bifurcation of the sciatic nerve, the nerve was freed of adhering tissue and 4 loose ligatures of 4-0 silk were tied around the nerve. Spacing between ligatures was approximately 1 mm. The muscle was sutured in layers, and the skin closed with silk suture.
The experimental animals were composed of four groups: a solvent administration group and each administration group of either 2, 10 or 50 mg/kg of Compound 7 (Compound 7-administration group). Compound 7 was orally administered to the Compound 7-administration group in a single dose 3 hours before the measurement test performed 12 days after CCI surgery. […]
The baseline threshold value was measured before CCI surgery, and then the pain threshold value was measured 12 days after surgery.

[5] = Central tissue distribution in humans: exposure to the cerebrospinal fluid after repeated oral administration; assay type: in vivo, human; details: healthy subjects
[6] = system: SNL model rats; test: Rat spinal nerve ligation model (SNL or Chung model), Dynamic Plantar Aesthesiometer test; assay type: in vivo; details: 50 mg/kg oral once a day for 7 days from the 15th day after SNL surgery, vs solvent group
Method: In order to confirm the effect of Compound 7 on neuropathic pain, the effect of Compound 7 on allodynia caused by mechanical stimulation occurring in SNL model rats was investigated. Compound 7 was orally administered to rats as a test drug, and the following tests were carried out.
As an experimental animal, a 6-week-old Sprague Dawley male rat (180 to 210 g) was used. The surgery was performed according to the procedure described in Chung et al., Pain, 1992, 50, 355-363. Under isoflurane anesthesia, a longitudinal incision was made in the dorsal skin from the thoracic spine to the sacral spine level. After incision and isolation of the paravertebral muscles, the L5 and L6 transverse processes were removed to expose the L5 and L6 spinal nerves. These nerves were ligated with 5-0 silk suture. Sham operated animals were treated identically with the exception that the nerves were not ligated. The muscle was sutured in layers, and the skin was closed with silk suture.
The experimental animals consisted of 6 groups: a sham operation group, a solvent administration group, and each administration group of either 0.4, 2, 10, or 50 mg/kg of Compound 7 (Compound 7-administration group). […]
The pain threshold for mechanical stimulation in the above rats, was measured using a Dynamic Plantar Aesthesiometer (manufactured by Ugo Basile).

[7] = system: animal models of bone cancer; details: cited from earlier work
[8] = system: neuropathic pain in rats; details: cited from earlier work
[9] = system: neuropathy model rats; details: 30 mg/kg; cited from earlier work
[10] = system: amphetamine-induced hypersensitivity; details: 30 mg/kg; cited from earlier work

| concentration at 1 h [2] | Brain concentration [2] | Spinal cord concentration [2] | AUC(0-t) ([3]; Day 1 of administration) | Cmax ([3]; Day 1 of administration) | Tmax ([3]; Day 1 of administration) | AUC(0-t) ([3]; Day 4 of administration) | Cmax ([3]; Day 4 of administration) | Tmax ([3]; Day 4 of administration) | SMILES | Distribution to blood and central tissue (in words) [2] | also measured |
| --- | --- | --- | --- | --- | --- | --- | --- | --- | --- | --- | --- |
| – | – | – | – | – | – | – | – | – | Clc1cccc(-c2nnnn2Cc2cccnc2)c1Cl [A438079 hydrochloride] | – | Effect on development of hypersensitivity to mechanical stimulation [1]: suppressed the development of hypersensitivity to mechanical stimulation |
| 19.3 µM | 23.6 nmol/g tissue | 27.7 nmol/g tissue | 80.1 µM·h | 18.5 µM | 20 min | 77.4 µM·h | 14.7 µM | 35 min | O=C(NCc1ccc(F)cc1Cl)[C@]1(F)CC[C@@](O)(CO)c2ncccc21 [Compound 7, (5S,8S)-N-(2-chloro-4-fluorobenzyl)-5-fluoro-8-hydroxy-8-(hydroxymethyl)-5,6,7,8-tetrahydroquinoline-5-carboxamide] | sufficient distribution to blood, brain and spinal cord | Pain threshold value (paw pressure) lowered by CCI surgery [4]: significantly increased in all the administration groups; Exposure to the cerebrospinal fluid [5]: Sufficient Exposure; Pain threshold value for mechanical stimulation lowered by SNL surgery [6]: significantly increased |
| 5.08 µM | 9.22 nmol/g tissue | 11.4 nmol/g tissue | 48.8 µM·h | 9.54 µM | 20 min | 45.6 µM·h | 8.27 µM | 15 min | O=C(NCc1ccc(Cl)cc1Cl)[C@]1(F)CC[C@@](O)(CO)c2ncccc21 [Compound 10, (5S,8S)-N-(2,4-dichlorobenzyl)-5-fluoro-8-hydroxy-8-(hydroxymethyl)-5,6,7,8-tetrahydroquinoline-5-carboxamide] | sufficient distribution to blood, brain and spinal cord | – |
| – | – | – | – | – | – | – | – | – | Clc1cccc(-c2nnnn2Cc2cccnc2)c1Cl [Compound A-438079] | – | Effect on bone cancer-related behavior [7]: could not alleviate bone cancer-related behavior |
| – | – | – | – | – | – | – | – | – | COc1ccc(CC(=O)NC(NC(=NC#N)Nc2cccc3ncccc23)C(C)(C)C)cc1OC (stereo not shown) [Compound A-740003, N-(1-{[(cyanoimo) (5-quinolinylamino)methyl]amino}-2,2-dimethylpropyl)-2-(3,4-dimethoxyphenyl)acetamide] | – | Effect on neuropathic pain [8]: reduced neuropathic pain in rats in a dose-dependent manner |
| – | – | – | – | – | – | – | – | – | O=C(NCC1(N2CCN(c3ccccc3)CC2)CCOCC1)c1cccnc1Sc1ccccc1 [JNJ-47965567] | – | Efficacy in neuropathy model rats [9]: not a large but a significant efficacy; Effect on amphetamine-induced hypersensitivity [10]: alleviated the amphetamine-induced hypersensitivity |

Source: US20240009180A1, “MEDICINE FOR ALLEVIATING NEUROPATHIC PAIN” (Asahi Kasei Pharma Corporation, priority 2020, published 2024)
